Values quoted from earlier work in patent publication US20220000787A1, “DELAYED RELEASE PHARMACEUTICAL COMPOSITION OF PREDNISONE AND PREPARATION THEREOF” (PIRAMAL PHARMA LIMITED, priority 2020, published 2022).

Solubility in alcohol, chloroform, dioxane, and methanol (alcohol, chloroform, dioxane, methanol): slightly soluble
Solubility in water (water): very slightly soluble
SMILES: C[C@]12C=CC(=O)C=C1CC[C@@H]1[C@@H]2C(=O)C[C@@]2(C)[C@H]1CC[C@]2(O)C(=O)CO [Prednisone, 17,21-dihydroxypregna-1,4-diene-3,11,20-trione]
